Test results reported in US12649745B2, “Amino-pyrimidine cyclo-amides” (Hoffmann-La Roche Inc., priority 2020, dated 2026).

Each compound was assayed against T1, human Autotaxin (ATX) (Homo sapiens, UniProt Q13822) (assay: Human ATX enzyme inhibition assay (LPC substrate, choline oxidase/HRP/Amplex Red coupled format)). Details: recombinant hATX 1 nM, 18:1 LPC 30 μM, fluorescence at 90 mins minus 5 mins.
T1 construct: generate a full length human ENPP2 ORF with or without a 3′-6×His tag; 6xHis (C); made in house; host or cells: FreeStyle 293-F cells (transient transfection), purified from culture supernatant
Type: biochemical
Protocol: Human ATX Enzyme Inhibition Assay
To identify inhibitors of the human Autotaxin (ATX) enzyme an in-vitro biochemical profiling assay has been developed using lysophosphatidylcholine (LPC) as substrate and recombinant enzyme. ATX activity is assayed via a coupled enzyme format where choline produced from LPC hydrolysis is converted to hydrogen peroxide by choline oxidase (CO). Hydrogen peroxide is in turn used as a co-substrate by horseradish peroxidase (HRP) to oxidise Amplex Red® and generate the red-fluorescent product, Resorufin.
50 mM Tris-HCl (pH 8.0); 120 mM NaCl; 20 mM CaCl2; 5 mM KCl; 1 mM MgCl2; 0.01% Triton X-100, sterile-filtered and stored at 4° C.
50 mM Tris-HCl (pH 8.0); 150 mM NaCl
human Autotaxin (hATX): 0.97 mg/ml (9.718 μM) Molecular weight 99817. Working solution of 1.5 μM used in this assay.
100 mM 18:1 LPC dissolved in reagent dilution-buffer.
500 U/ml Choline Oxidase in reagent dilution buffer.
2540 U/ml Horseradish Peroxidase, in reagent dilution buffer (10.95 mg/ml).
20 mM Amplex Red (10-Acetyl-3,7-dihydroxy-phenoxazin) in DMSO.
Black, 384-well plate, black with clear bottom, non-treated surface.
Test compounds are received pre-diluted in DMSO as an 11-point concentration-response (0.5 mM highest concentration; 1 in 3.162 dilution). Test compounds are pre-diluted 1:1 (10 μL compound+10 μL assay buffer) in a 96-well conical bottomed plate prior to use.
ATX is diluted to 2.2 nM in assay buffer. Choline oxidase and horseradish peroxidase are diluted to 7.3 U/ml and 14.7 U/ml, respectively. 18:1 LPC and Amplex Red® are diluted to 110 μM and 183.3 μM, respectively (solution protected from light). 2.2 μL of compound pre-dilution or 50% DMSO is added to the reaction plate followed by 25 μL of ATX or assay buffer (negative control). Assay plate is mixed and incubated at room temperature for 10 mins. 15 μL of choline oxidase/horseradish peroxidase is then added. To initiate the reaction 15 μL of LPC 18:1/Amplex Red is added. Assay plate is mixed and incubated at room temperature in the dark. Fluorescence is measured at 5 mins (for background subtraction) and 90 mins.
Final Assay Concentrations:
Horse Radish Peroxidase: 4 U/ml
Fluorescence at 5-minutes is subtracted from the 90-minute end point data and normalized with respect to the positive control. IC50 values are calculated.
Results in the enzymatic ATX inhibition assay are provided for compounds of formula (I).

IC50 [nM]	Structure (SMILES)
4	N#Cc1cc(Cl)cc2c1C[C@@H](Nc1ncc3c(n1)CCN(C1CCOCC1)C3=O)C2 [Example 29, (S)-6-chloro-2-((5-oxo-6-(tetrahydro-2H-pyran-4-yl)-5,6,7,8-tetrahydropyrido[4,3-d]pyrimidin-2-yl)amino)-2,3-dihydro-1H-indene-4-carbonitrile]
2	CC(C)N1CCc2nc(N[C@H]3Cc4cc(Cl)cc(C#N)c4C3)ncc2C1=O [Example 30, (S)-6-chloro-2-((6-isopropyl-5-oxo-5,6,7,8-tetrahydropyrido[4,3-d]pyrimidin-2-yl)amino)-2,3-dihydro-1H-indene-4-carbonitrile]
2	N#Cc1cc(Cl)cc2c1C[C@@H](Nc1ncc3c(n1)CCN(CC1CC1)C3=O)C2 [Example 31, (S)-6-chloro-2-((6-(cyclopropylmethyl)-5-oxo-5,6,7,8-tetrahydropyrido[4,3-d]pyrimidin-2-yl)amino)-2,3-dihydro-1H-indene-4-carbonitrile]
3	CCN1CCc2nc(N[C@H]3Cc4cc(Cl)cc(C#N)c4C3)ncc2C1=O [Example 34, (S)-6-chloro-2-((6-ethyl-5-oxo-5,6,7,8-tetrahydropyrido[4,3-d]pyrimidin-2-yl)amino)-2,3-dihydro-1H-indene-4-carbonitrile]
3	N#Cc1cc(Cl)cc2c1C[C@@H](Nc1ncc3c(n1)CCN(CC(F)(F)F)C3=O)C2 [Example 36, (S)-6-chloro-2-((5-oxo-6-(2,2,2-trifluoroethyl)-5,6,7,8-tetrahydropyrido[4,3-d]pyrimidin-2-yl)amino)-2,3-dihydro-1H-indene-4-carbonitrile]

The remaining lines, values behind:

Structure (SMILES)	IC50 [nM]
N#Cc1cc(Cl)cc2c1C[C@@H](Nc1ncc3c(n1)CN(C(CF)CF)C3=O)C2 [Example 26, (S)-6-chloro-2-((6-(1,3-difluoropropan-2-yl)-5-oxo-6,7-dihydro-5H-pyrrolo[3,4-d]pyrimidin-2-yl)amino)-2,3-dihydro-1H-indene-4-carbonitrile]	4
N#Cc1cc(Cl)cc2c1C[C@@H](Nc1ncc3c(n1)CCNC3=O)C2 [Example 27, (S)-6-chloro-2-((5-oxo-5,6,7,8-tetrahydropyrido[4,3-d]pyrimidin-2-yl)amino)-2,3-dihydro-1H-indene-4-carbonitrile]	3
CC1(CN2Cc3nc(N[C@H]4Cc5cc(Cl)cc(C#N)c5C4)ncc3C2=O)COC1 [Example 28, (S)-6-chloro-2-((6-((3-methyloxetan-3-yl)methyl)-5-oxo-6,7-dihydro-5H-pyrrolo[3,4-d]pyrimidin-2-yl)amino)-2,3-dihydro-1H-indene-4-carbonitrile]	6
CCN1Cc2nc(N[C@H]3Cc4cc(Cl)cc(C#N)c4C3)ncc2C1=O [Example 33, (S)-6-chloro-2-((6-ethyl-5-oxo-6,7-dihydro-5H-pyrrolo[3,4-d]pyrimidin-2-yl)amino)-2,3-dihydro-1H-indene-4-carbonitrile]	2
N#Cc1cc(Cl)cc2c1C[C@@H](Nc1ncc3c(n1)CNC3=O)C2 [Example 35, (S)-6-chloro-2-((5-oxo-6,7-dihydro-5H-pyrrolo[3,4-d]pyrimidin-2-yl)amino)-2,3-dihydro-1H-indene-4-carbonitrile]	2
